Data: US10233146B2, “Acetylenic cyanoenones as therapeutics for inflammation and carcinogenesis” (THE RESEARCH FOUNDATION FOR THE STATE UNIVERSITY OF NEW YORK, priority 2015, dated 2019)
pIC50: −log10 of the molar value.

Key:
[1] = tested on: NQO1 and glutathione S-transferases; settings: mice, 9.2 mg per kg of food in the diet; cited from earlier work
Keap1/Nrf2/ARE pathway = settings: topical daily 200 nmol, five days per week for four weeks, cited from earlier work
NQO1 [2] = settings: Hepa1c1c murine hepatoma cells; cited from earlier work
NQO1 [3] = test: Induction of NQO1 in Hepa1c1c7 murine hepatoma cells; type: cell-based; settings: Mus musculus, Hepa-1c1c7; Hepa1c1c7 cells, 48 h treatment; read-out: NQO1 CD (concentration required to double the specific enzyme activity of NQO1)
Text: In this assay, the concentration required to double (CD value) the specific enzyme activity of NQO1 is used to quantify inducer potency. […] Dinkova-KOstova, A. T. et al. 2012). […] These compounds may be more robust inducers than monocyclic compounds. [table]

C#C[C@]12C=C(C#N)C(=O)C=C1[C@@]1(C)C=C(C#N)C(=O)C(C)(C)[C@@H]1CC2 (racemic) [TBE-31 (1), (±)-(4bS,8aR,10aS)-10a-ethynyl-4b,8,8-trimethyl-3,7-dioxo-3,4b,7,8,8a,9,10, 10a-octahydrophenanthrene-2,6-dicarbonitrile]
induction of NQO1 and glutathione S-transferases in the stomach, skin, and liver [1]: profoundly and dose-dependently induces | 6-thioguanine incorporation into DNA of skin, blood, and liver (Keap1/Nrf2/ARE pathway; azathioprine-treated mice): decreases | systemic induction of the Keap1/Nrf2/ARE pathway (Keap1/Nrf2/ARE pathway): robust systemic induction | upregulation of NQO1 (NQO1 [2]): upregulates NAD(P)H: quinone oxidoreductase 1 (NQO1) | EC (2-fold NQO1 activity) (NQO1 [3]): 0.0009 µM | pIC50 (iNOS): 9.00
